According to patent US10793514B2, “Glutamine transport inhibitors and methods for treating cancer” (Vanderbilt University, priority 2016, dated 2020):
“Also recorded” adds a separate entry of the source. Like-named read-outs stand apart in the source and are kept apart here.

Columns and labels:
human CRC cell lines = experiment: Follow-up viability screening (MultiTox Glo, sulforhodamine B); format: cell-based; details: four human CRC cell lines; 48 hrs; MultiTox Glo
Experimental: (§1) Viability was evaluated using a commercially available chemiluminescent reagents (CellTiter-Glo, Promega Corp. G7572; MultiTox Glo, Promega Corp. G9270) in 96-well plate format according to the manufacturers protocol. […] Subsequently, CellTiter-Glo reagent was added and the plates were read using a plate reader (BioTek Synergy 4) with standard settings. Each set of conditions was replicated at least three times, technically and biologically. Error is reported as standard deviation (SD). The sulforhodamine B assay was run analogously to the above assays as previously described^19.

[1] = system: pERK in HCC1806 and HT29 cells; experiment: AlphaScreen SureFire pERK assay; format: cell-based, human; details: 48 h
Experimental: Detection of activated ERK in cell lysates was enabled by the AlphaScreen SureFire ERK assay (Perkin Elmer) according to the manufacturers protocol. Cells were plated in 96-well plates for 24 hours prior to the assay.

HT29 cells = experiment: Glutathione and reactive oxygen species in HT29 cells; format: cell-based, human; details: 48 h
Experimental: Glutathione levels were measured using a commercially available kit (Cayman Chemical 703002) according to the manufacturers protocol. Concurrently ROS was measured in cells using CM-H2DCFDA (Life Technologies C6827) coupled with flow cytometry in accordance with the manufacturers protocol. The assay was replicated replicated at least three times, technically and biologically. Significance was calculated using a t-test in Graphpad Prism. Error is reported as standard deviation (SD).

HCC1806 and HT29 cells = experiment: Autophagic flux (CYTO-ID); format: cell-based, human; details: single agent
Experimental: Autophagic flux was measure using the CYTO-ID autophagy detection kit (Enzo Life Sciences ENZ-51031). HCC1806 and HT29 cells were seeded in 96 well plates the day before the experiment. […] Following treatment, cells were gently washed with assay buffer followed by addition of the dual color detection solution and incubation at 37° C. for 30 min. The plate was analyzed on a fluorescence microplane reader (BioTek Synergy 4).

HT29 and HCT-116 cells = experiment: Cell viability with or without chloroquine; format: cell-based, human; details: 48 h
Experimental: as §1

[2] = system: human CRC organoids A-007 and A-008; experiment: Human CRC organoid viability assay; format: cell-based; details: V-9302 25 μM or CB-839 35 μM, 96 h
Experimental: Human CRC-derived organoids were prepared as reported method with modification^41. Briefly, specimens from freshly resected tumors were minced and digested with 2 mg/ml type 2 collagenase (Worthington, N.J., USA). Samples were passed through 40 µm filters (Greiner Bio One, NC, USA) and epithelial cells trapped on the filters were embed in Matrigel (Corning, MA, USA) and cultured with advanced DMEM/F12 supplemented with N2 and B27 supplements (Thermo Fischer, MA, USA), 50 ng/ml rhEGF (R&D systems, MN, USA) and 1% antibiotic-antimycotic (Corning). For viability assay, organoids were dissociated by TrypLE express (Thermo Fischer) and suspended in Matrigel. […] After 4 days of culture, images of the organoids in Matrigel were captured and the number of viable cells were quantified with CellTiter Aqueous One Cell Proliferation Assay kit (Promega, WI, USA) and a Synergy 4 plate reader (BioTek, VT, USA). The assay was replicated at least three times, technically and biologically. Significance was calculated using a t-test in Graphpad Prism. Error is reported as standard deviation (SD).

ASCT2 [3] = target: ASCT2 (Rattus norvegicus (Rat), UniProt D3ZJ25); experiment: Inhibition of ASCT2-mediated glutamine uptake in C6 (rat) cells; format: cell-based; details: for IC50: C6 (rat) cells, glutamine uptake, mean of at least 3 biological replicates; for preference for blocking glutamine transport in rat vs human cell line: C6 (rat) vs HEK293 (human)
ASCT2 (Rattus norvegicus (Rat), UniProt D3ZJ25), sequence (D3ZJ25 whole entry): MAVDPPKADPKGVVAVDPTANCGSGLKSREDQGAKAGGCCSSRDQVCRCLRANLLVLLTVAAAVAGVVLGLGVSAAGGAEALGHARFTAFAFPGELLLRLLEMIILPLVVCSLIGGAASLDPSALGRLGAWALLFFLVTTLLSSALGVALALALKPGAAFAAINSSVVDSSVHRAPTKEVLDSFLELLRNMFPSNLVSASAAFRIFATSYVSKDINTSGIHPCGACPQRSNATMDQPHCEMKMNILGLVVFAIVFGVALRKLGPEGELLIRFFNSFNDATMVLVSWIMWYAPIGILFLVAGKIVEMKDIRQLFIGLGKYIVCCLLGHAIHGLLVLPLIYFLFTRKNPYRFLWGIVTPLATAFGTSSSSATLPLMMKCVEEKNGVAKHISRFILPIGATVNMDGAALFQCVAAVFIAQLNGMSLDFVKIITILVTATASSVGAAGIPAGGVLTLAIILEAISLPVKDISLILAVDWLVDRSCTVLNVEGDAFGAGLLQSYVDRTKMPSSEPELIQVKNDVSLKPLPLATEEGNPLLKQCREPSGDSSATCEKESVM

ASCT2 [4] = target: ASCT2 (Homo sapiens (Human), UniProt Q15758); experiment: Inhibition of ASCT2-mediated 3H-glutamine uptake in live HEK293 (human) cells; format: cell-based
ASCT2 (Homo sapiens (Human), UniProt Q15758), sequence (Q15758 whole entry): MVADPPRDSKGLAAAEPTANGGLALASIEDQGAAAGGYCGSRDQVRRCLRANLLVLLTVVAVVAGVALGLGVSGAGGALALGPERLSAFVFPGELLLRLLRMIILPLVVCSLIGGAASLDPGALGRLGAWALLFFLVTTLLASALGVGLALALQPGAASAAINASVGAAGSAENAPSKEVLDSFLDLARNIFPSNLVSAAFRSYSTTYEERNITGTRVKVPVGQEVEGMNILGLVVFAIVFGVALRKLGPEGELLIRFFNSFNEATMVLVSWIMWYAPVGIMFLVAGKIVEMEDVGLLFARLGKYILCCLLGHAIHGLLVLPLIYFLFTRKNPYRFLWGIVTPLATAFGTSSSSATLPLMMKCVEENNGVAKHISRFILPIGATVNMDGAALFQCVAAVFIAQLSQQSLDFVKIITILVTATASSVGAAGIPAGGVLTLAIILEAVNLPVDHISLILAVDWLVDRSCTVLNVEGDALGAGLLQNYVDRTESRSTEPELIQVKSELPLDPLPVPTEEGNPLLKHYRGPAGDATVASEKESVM
Experimental: Live-cell amino acid uptake assays using HEK293 cells were carried out in 96-well plates (CulturPlate-96, Perkin Elmer). 96-well plates were coated with poly-D-lysine prior to the assay. Cells were plated at a density of 35,000 cells per well 24 h prior to carrying out the assay. Each set of conditions was replicated at least three times, technically and biologically. […] For ASCT2-mediated ^3H-glutamine uptake assays, 5 mM of the system-L inhibitor 2-amino-2-norbornanecarboxylic acid (BCH) was added and the assay buffer was adjusted to pH 6.0. For selectivity studies, no BCH was added and the assay was conducted at pH 7.4. Following the incubation period, the ^3H-glutamine/inhibitor was removed and the cells were washed three times with assay buffer. The cells were then lysed by the addition of 50 μL of 1 M NaOH. For reading, 150 μL of scintillation fluid (Microscint 40, Perkin Elmer) was added and the plates were counted on a scintillation counter (Topcount, Perkin Elmer). Fifty percent inhibitory concentrations (IC50) were calculated using GraphPad Prism version 6 for Mac OS X, GraphPad Software, San Diego Calif. […] Error is reported as standard deviation (SD).

ASCT2 [5] = details: cited from earlier work
HCC1806 cells = experiment: Cell viability in HCC1806 cells; format: cell-based; details: Homo sapiens, exposure 48 hrs
[6] = HEK293 (human) cells, glutamine uptake, mean of at least 3 biological replicates, read-out: IC50 (human)

SMILES	IC50 (ASCT2 [3])	IC50 (ASCT2 [4]; [6])	also measured
O=C(Cc1cccc(OC(F)(F)F)c1)Nc1ccc(CCCCc2nnc(NC(=O)Cc3ccccn3)s2)nn1 [CB-839, reference compound]	–	–	EC50, cellular viability (human CRC cell lines): did not exhibit appreciable activity; pERK (independent biochemical assay) [1]: not observed; GSSG levels and ROS (HT29 cells): not observed; autophagic flux (HCC1806 and HT29 cells): did not lead to elevated autophagic flux; cell viability, single agent (HT29 and HCT-116 cells): did not decrease cell viability; organoid viability [2]: not significantly affected
COc1cccc(Oc2ccccc2CN(CC[C@@H](N)C(=O)O)Cc2ccccc2Oc2ccccc2OC)c1 [Compound 5]	1.3 µM	57.2 µM	preference for blocking glutamine transport in rat vs human cell line (ASCT2 [3]): exhibited this preference
COc1ccc(Oc2ccccc2CN(CC[C@@H](N)C(=O)O)Cc2ccccc2Oc2ccc(OC)cc2)cc1 [Compound 6]	8.7 µM	11.9 µM	preference for blocking glutamine transport in rat vs human cell line (ASCT2 [3]): roughly equal potencies in both cells lines
N[C@H](CCN(Cc1ccccc1Oc1cccc(Cl)c1)Cc1ccccc1Oc1cccc(Cl)c1)C(=O)O [Compound 7]	–	26 µM	–
N[C@H](CCN(Cc1ccccc1Oc1ccccc1F)Cc1ccccc1Oc1ccccc1F)C(=O)O [Compound 8]	1.8 µM	33.8 µM	preference for blocking glutamine transport in rat vs human cell line (ASCT2 [3]): some preference for blocking glutamine transport in the rat cell line
N[C@H](CCN(Cc1ccccc1Oc1cccc(F)c1)Cc1ccccc1Oc1cccc(F)c1)C(=O)O [Compound 9]	36.3 µM	–	–
Cc1ccc(Oc2ccccc2CN(CC[C@@H](N)C(=O)O)Cc2ccccc2Oc2ccc(F)cc2)cc1 [Compound 10]	10.5 µM	142 µM	preference for blocking glutamine transport in rat vs human cell line (ASCT2 [3]): some preference for blocking glutamine transport in the rat cell line
N[C@H](CCN(Cc1ccccc1Oc1ccccn1)Cc1ccccc1Oc1ccccn1)C(=O)O [Compound 11]	68.2 µM	59.6 µM	preference for blocking glutamine transport in rat vs human cell line (ASCT2 [3]): roughly equal potencies in both cells lines
COc1cccc(COc2ccccc2CN(CC[C@@H](N)C(=O)O)Cc2ccccc2OCc2cccc(OC)c2)c1 [Compound 12]	5.1 µM	7.2 µM	–
N[C@H](CCN(Cc1ccccc1OCc1ccccc1Cl)Cc1ccccc1OCc1ccccc1Cl)C(=O)O [Compound 13]	18.4 µM	40.1 µM	–
N[C@H](CCN(Cc1ccccc1OCc1cccc(O)c1)Cc1ccccc1OCc1cccc(Cl)c1)C(=O)O [Compound 14]	12.7 µM	50.8 µM	–
N[C@H](CCN(Cc1ccccc1OCc1ccc(Cl)cc1)Cc1ccccc1OCc1ccc(Cl)cc1)C(=O)O [Compound 15]	20.1 µM	33.7 µM	–
Cc1ccccc1COc1ccccc1CN(CC[C@@H](N)C(=O)O)Cc1ccccc1OCc1ccccc1C [Compound 16]	41.7 µM	25.6 µM	–
Cc1cccc(COc2ccccc2CN(CC[C@@H](N)C(=O)O)Cc2ccccc2OCc2cccc(C)c2)c1 [Compound 17]	9 µM	–	–
Cc1ccc(COc2ccccc2CN(CC[C@@H](N)C(=O)O)Cc2ccccc2OCc2ccc(C)cc2)cc1 [Compound 18]	86.4 µM	17.5 µM	preference for blocking glutamine transport in rat vs human cell line (ASCT2 [3]): significant preference for inhibiting glutamine uptake in the human form of ASCT2
N[C@H](CCN(Cc1ccccc1OCc1ccccc1F)Cc1ccccc1OCc1ccccc1F)C(=O)O [Compound 19]	3.3 µM	–	–
N[C@H](CCN(Cc1ccccc1OCc1ccc(F)cc1)Cc1ccccc1OCc1ccc(F)cc1)C(=O)O [Compound 20]	11.2 µM	–	–
N[C@H](CCN(Cc1ccccc1OCc1ccccn1)Cc1ccccc1OCc1ccccn1)C(=O)O [Compound 21]	8.4 µM	48.3 µM	–
N[C@H](CCN(Cc1ccccc1OCc1cccnc1)Cc1ccccc1OCc1cccnc1)C(=O)O [Compound 22]	17.3 µM	89.1 µM	–
N[C@@H](CCC(=O)Nc1ccc([N+](=O)[O-])cc1)C(=O)O [GPNA, L-γ-glutamyl-p-nitroanilide]	–	–	IC50 (ASCT2 [4]; live HEK-293 cells, read-out: IC50, inhibition of ASCT2-mediated glutamine uptake in human cells): 1000 µM; potency as ASCT2 inhibitor (previously reported) (ASCT2 [5]): poor potency and selectivity in human cells; also recorded: modest potency in the low millimolar range
NC(=O)CC[C@H](Nc1ccccc1CN1CCOCC1)C(=O)O [N-(2-(morpholinomethyl)phenyl)-L-glutamine]	–	–	activity against ASCT2 compared to GPNA (previously described) (ASCT2 [5]): three-fold improved activity
N[C@@H](COC(=O)c1ccc(-c2ccccc2)cc1)C(=O)O [O-(4-phenylbenzoyl)-L-serine]	–	–	Ki (ASCT2 [5]; Albers et al., read-out: apparent affinity): 30 µM
Cc1cccc(COc2ccccc2CN(Cc2ccccc2OCc2cccc(C)c2)C2CCN[C@H](C(=O)O)C2)c1 (stereo partly drawn) [WJB-A-110, (2S)-4-(Bis(2-((3-methylbenzyl)oxy)benzyl)amino)piperidine-2-carboxylic Acid]	–	–	IC50 (HCC1806 cells): 32 µM
Cc1cccc(COc2ccccc2CN(Cc2ccccc2OCc2cccc(C)c2)C2CN[C@H](C(=O)O)C2)c1 (stereo partly drawn) [WJB-A-119, (2S)-4-(Bis(2-((3-methylbenzyl)oxy)benzyl)amino)pyrrolidine-2-carboxylic Acid]	–	–	IC50 (HCC1806 cells): 23 µM
